Two compounds from PubChem BioAssay AID1259407 (Chemical Carcinogenesis Research Information System (CCRIS), 2018) can be followed below.

Calls of active or inactive are those of the source. How the calls were made is not given here.

The subject of the data set is CCRIS mutagenicity, Ames/micronucleus/aberration tests. The data set can be described thus: CCRIS mutagenicity studies.

`CCCCNC(=O)n1c(NC(=O)OC)nc2ccccc21`: the mutagenic call by setting is: (End Point: IN VIVO CHROMOSOMAL ABERRATIONS, Test System: BONE MARROW CELLS, Species: MOUSE, Strain/Sex: SWISS/MALE, Route: DIET (ORAL)) “active; positive at all dose levels (structural and ploidy changes, robertsonian translo”; (Test System: AMES SALMONELLA TYPHIMURIUM, Strain/Indicator: TA97, Metabolic Activation: HAMSTER, LIVER, S-9, AROCLOR 1254 (10%), Method: PREINCUBATION) “inactive; negative”; (Test System: AMES SALMONELLA TYPHIMURIUM, Strain/Indicator: TA97, Metabolic Activation: HAMSTER, LIVER, S-9, AROCLOR 1254 (30%), Method: PREINCUBATION) “inactive; negative”; (Test System: AMES SALMONELLA TYPHIMURIUM, Strain/Indicator: TA97, Metabolic Activation: NONE, Method: PREINCUBATION) “inactive; negative”; (Test System: AMES SALMONELLA TYPHIMURIUM, Strain/Indicator: TA97, Metabolic Activation: RAT, LIVER, S-9, AROCLOR 1254 (10%), Method: PREINCUBATION) “inactive; negative”; (Test System: AMES SALMONELLA TYPHIMURIUM, Strain/Indicator: TA97, Metabolic Activation: RAT, LIVER, S-9, AROCLOR 1254 (30%), Method: PREINCUBATION) “inactive; negative”. Moreover, the mutagenic call reads like this: (Test System: AMES SALMONELLA TYPHIMURIUM, Strain/Indicator: TA97A, Metabolic Activation: NONE, Method: STANDARD PLATE) “inactive; negative”; (Test System: AMES SALMONELLA TYPHIMURIUM, Strain/Indicator: TA97A, Metabolic Activation: PLANT, HOMOGENATE, S-14, Method: STANDARD PLATE) “inactive; negative”; (Test System: AMES SALMONELLA TYPHIMURIUM, Strain/Indicator: TA97A, Metabolic Activation: S-9, Method: STANDARD PLATE) “inactive; negative”; (Test System: AMES SALMONELLA TYPHIMURIUM, Strain/Indicator: TA98, Metabolic Activation: HAMSTER, LIVER, S-9, 1254 (10%), Method: PREINCUBATION) “inactive; negative”; (Test System: AMES SALMONELLA TYPHIMURIUM, Strain/Indicator: TA98, Metabolic Activation: HAMSTER, LIVER, S-9, AROCLOR 1254 (30%), Method: PREINCUBATION) “inactive; negative”; (Test System: AMES SALMONELLA TYPHIMURIUM, Strain/Indicator: TA98, Metabolic Activation: NONE, Method: PREINCUBATION) “inactive; negative”. The mutagenic call reads like this: (Test System: AMES SALMONELLA TYPHIMURIUM, Strain/Indicator: TA98, Metabolic Activation: PLANT, HOMOGENATE, S-14, Method: STANDARD PLATE) “inactive; negative”; (Test System: AMES SALMONELLA TYPHIMURIUM, Strain/Indicator: TA98, Metabolic Activation: RAT, LIVER, S-9, AROCLOR 1254 (10%), Method: PREINCUBATION) “inactive; negative”; (Test System: AMES SALMONELLA TYPHIMURIUM, Strain/Indicator: TA98, Metabolic Activation: RAT, LIVER, S-9, AROCLOR 1254 (30%), Method: PREINCUBATION) “inactive; negative”; (Test System: AMES SALMONELLA TYPHIMURIUM, Strain/Indicator: TA98, Metabolic Activation: RAT, LIVER, S-9, AROCLOR 1254, Method: STANDARD PLATE) “inactive; negative”; (Test System: AMES SALMONELLA TYPHIMURIUM, Strain/Indicator: TA98, Metabolic Activation: RAT, LIVER, S-9, AROCLOR, Method: STANDARD PLATE) “inactive; negative”; (Test System: AMES SALMONELLA TYPHIMURIUM, Strain/Indicator: TA98, Metabolic Activation: S-9, Method: STANDARD PLATE) “inactive; negative”. Further, the mutagenic call runs as follows: (Test System: AMES SALMONELLA TYPHIMURIUM, Strain/Indicator: TA100, Metabolic Activation: HAMSTER, LIVER, S-9, AROCLOR 1254 (10%), Method: PREINCUBATION) “inactive; negative”; (Test System: AMES SALMONELLA TYPHIMURIUM, Strain/Indicator: TA100, Metabolic Activation: HAMSTER, LIVER, S-9, AROCLOR 1254 (30%), Method: PREINCUBATION) “inactive; negative”; (Test System: AMES SALMONELLA TYPHIMURIUM, Strain/Indicator: TA100, Metabolic Activation: NONE, Method: PREINCUBATION) “inactive; negative”; (Test System: AMES SALMONELLA TYPHIMURIUM, Strain/Indicator: TA100, Metabolic Activation: PLANT, HOMOGENATE, S-14, Method: STANDARD PLATE) “inactive; negative”; (Test System: AMES SALMONELLA TYPHIMURIUM, Strain/Indicator: TA100, Metabolic Activation: RAT, LIVER, S-9, AROCLOR 1254 (10%), Method: PREINCUBATION) “inactive; negative”; (Test System: AMES SALMONELLA TYPHIMURIUM, Strain/Indicator: TA100, Metabolic Activation: RAT, LIVER, S-9, AROCLOR 1254 (30%), Method: PREINCUBATION) “inactive; negative”. The mutagenic call reads like this: (Test System: AMES SALMONELLA TYPHIMURIUM, Strain/Indicator: TA100, Metabolic Activation: RAT, LIVER, S-9, AROCLOR 1254, Method: STANDARD PLATE) “inactive; negative”; (Test System: AMES SALMONELLA TYPHIMURIUM, Strain/Indicator: TA100, Metabolic Activation: RAT, LIVER, S-9, AROCLOR, Method: STANDARD PLATE) “inactive; negative”; (Test System: AMES SALMONELLA TYPHIMURIUM, Strain/Indicator: TA100, Metabolic Activation: S-9, Method: STANDARD PLATE) “inactive; negative”; (Test System: AMES SALMONELLA TYPHIMURIUM, Strain/Indicator: TA1535, Metabolic Activation: HAMSTER, LIVER, S-9, AROCLOR 1254 (10%), Method: PREINCUBATION) “inactive; negative”; (Test System: AMES SALMONELLA TYPHIMURIUM, Strain/Indicator: TA1535, Metabolic Activation: HAMSTER, LIVER, S-9, AROCLOR 1254 (30%), Method: PREINCUBATION) “inactive; negative”; (Test System: AMES SALMONELLA TYPHIMURIUM, Strain/Indicator: TA1535, Metabolic Activation: NONE, Method: PREINCUBATION) “inactive; negative”. The mutagenic call (Test System: AMES SALMONELLA TYPHIMURIUM, Strain/Indicator: TA1535, Metabolic Activation: PLANT, HOMOGENATE, S-14, Method: STANDARD PLATE) is “inactive; negative”; the mutagenic call (Test System: AMES SALMONELLA TYPHIMURIUM, Strain/Indicator: TA1535, Metabolic Activation: RAT, LIVER, S-9, AROCLOR 1254 (10%), Method: PREINCUBATION) is “inactive; negative”; the mutagenic call (Test System: AMES SALMONELLA TYPHIMURIUM, Strain/Indicator: TA1535, Metabolic Activation: RAT, LIVER, S-9, AROCLOR 1254 (30%), Method: PREINCUBATION) is “inactive; negative”; the mutagenic call (Test System: AMES SALMONELLA TYPHIMURIUM, Strain/Indicator: TA1535, Metabolic Activation: RAT, LIVER, S-9, AROCLOR 1254, Method: STANDARD PLATE) was “inactive; negative”; the mutagenic call (Test System: AMES SALMONELLA TYPHIMURIUM, Strain/Indicator: TA1535, Metabolic Activation: RAT, LIVER, S-9, AROCLOR, Method: STANDARD PLATE) was “inactive; negative”; the mutagenic call (Test System: AMES SALMONELLA TYPHIMURIUM, Strain/Indicator: TA1535, Metabolic Activation: S-9, Method: STANDARD PLATE) is “inactive; negative”. Besides, the mutagenic call was “inactive; negative” (Test System: AMES SALMONELLA TYPHIMURIUM, Strain/Indicator: TA1537, Metabolic Activation: HAMSTER, LIVER, S-9, AROCLOR 1254 (10%), Method: PREINCUBATION); “inactive; negative” (Test System: AMES SALMONELLA TYPHIMURIUM, Strain/Indicator: TA1537, Metabolic Activation: HAMSTER, LIVER, S-9, AROCLOR 1254 (30%), Method: PREINCUBATION); “inactive; negative” (Test System: AMES SALMONELLA TYPHIMURIUM, Strain/Indicator: TA1537, Metabolic Activation: NONE, Method: PREINCUBATION); “inactive; negative” (Test System: AMES SALMONELLA TYPHIMURIUM, Strain/Indicator: TA1537, Metabolic Activation: NONE, Method: STANDARD PLATE); “inactive; negative” (Test System: AMES SALMONELLA TYPHIMURIUM, Strain/Indicator: TA1537, Metabolic Activation: RAT, LIVER, S-9, AROCLOR 1254 (10%), Method: PREINCUBATION); “inactive; negative” (Test System: AMES SALMONELLA TYPHIMURIUM, Strain/Indicator: TA1537, Metabolic Activation: RAT, LIVER, S-9, AROCLOR 1254 (30%), Method: PREINCUBATION). For the same compound, the mutagenic call runs as follows: (Test System: AMES SALMONELLA TYPHIMURIUM, Strain/Indicator: TA1537, Metabolic Activation: RAT, LIVER, S-9, AROCLOR 1254, Method: STANDARD PLATE) “inactive; negative”; (Test System: AMES SALMONELLA TYPHIMURIUM, Strain/Indicator: TA1537, Metabolic Activation: RAT, LIVER, S-9, AROCLOR, Method: STANDARD PLATE) “inactive; negative”; (Test System: E. COLI, Strain/Indicator: WP2 UVRA, Metabolic Activation: NONE, Method: FLUCTUATION) “active; positive”.

In the case of `C1CCNCC1`, the mutagenic call was “active; positive” (Test System: MOUSE LYMPHOMA, Strain/Indicator: L5178Y (TK+/TK-), Metabolic Activation: NONE, Method: SUSPENSION/PLATE) and “inactive; negative” (Test System: MOUSE LYMPHOMA, Strain/Indicator: L5178Y (TK+/TK-), Metabolic Activation: RAT, LIVER, S-9, AROCLOR 1254, Method: SUSPENSION/PLATE).
